In patent EP4663632A1, “COMPOUNDS USEFUL FOR THE MODULATION OF THE ACTIVITY OF STING” (Sulis Therapeutics ApS, priority 2024, dated 2025):

Key:
[1] = target: T1, C-terminal domain (CTD) of human STING (Homo sapiens, UniProt Q86WV6); assay: STING binding FP assay I; design: recombinant human STING protein (155-379); conditions: 35 nM STING, 4 nM Probe 1
Method: (§1) The interaction between molecules and the C-terminal domain (CTD) of human STING was evaluated using a competition binding assay. In this assay, recombinant human STING protein (155-379) and a STING binding fluorescent probe were employed. Upon binding of the probe to STING, the rotation of the fluorescent probe is slowed due to the larger molecular size of the protein-bound complex. As a result, emitted light retains its plane of polarization, leading to an increase in fluorescence polarization. Molecules competing for the probe binding site displace the probe, which leads to rapid randomization of the polarization plane of the emitted light and a subsequent decrease in measured fluorescence polarization signal. Change in polarization was measured, allowing a comparative evaluation of the binding affinities of different compounds to the target protein.
(§2) The assay was performed in 96-well plates (ThermoFisher, cat.# 237108) containing 100µl : 10 µL test compound in 10% DMSO and buffer A (150 mM NaCl, 50 mM HEPES pH 7.5, 1 mM DTT) + 90 µL prepared master mix solution of: 4 nM fluorescein-labelled STING ligand (Probe 1; synthesis described above) in buffer A + 0.055% Tween-20 (v/v) and 35 nM STING in buffer A. Post mixing, plates were agitated at 600rpm and incubated for 20 min at room temperature. Subsequent measurements of the fluorescence polarization signal were made on a BioTek Synergy-H1 plate reader, using a polarization filter; Exc: 485/20 nm, Em: […]) with a gain-setting of 75. IC50 values were determined using a standard non-linear regression four-parameter curve fit in Graphpad Prism.

[2] = target: T1, C-terminal domain (CTD) of human STING; assay: STING binding FP assay II; design: recombinant human STING protein (155-379); conditions: 7 nM STING
Method: as §1, §2
The procedure for STING binding FP assay II is the same as described for STING binding FP assay I, except for a lower STING concentration. In STING binding FP assay II, a concentration of 7 nM STING in buffer A was used.

STING [3] = target: T2, STING (Homo sapiens, UniProt Q86WV6); assay: Inhibition of STING-agonist-induced IFN-β and CXCL10 release by Compounds A9 and A11; type: cell-based; design: host or cells: HFF-1 human foreskin fibroblasts; conditions: 1 to 2 hours prior to, simultaneously with, or 15 minutes after diABZI c3
T2 sequence (Q86WV6 whole entry): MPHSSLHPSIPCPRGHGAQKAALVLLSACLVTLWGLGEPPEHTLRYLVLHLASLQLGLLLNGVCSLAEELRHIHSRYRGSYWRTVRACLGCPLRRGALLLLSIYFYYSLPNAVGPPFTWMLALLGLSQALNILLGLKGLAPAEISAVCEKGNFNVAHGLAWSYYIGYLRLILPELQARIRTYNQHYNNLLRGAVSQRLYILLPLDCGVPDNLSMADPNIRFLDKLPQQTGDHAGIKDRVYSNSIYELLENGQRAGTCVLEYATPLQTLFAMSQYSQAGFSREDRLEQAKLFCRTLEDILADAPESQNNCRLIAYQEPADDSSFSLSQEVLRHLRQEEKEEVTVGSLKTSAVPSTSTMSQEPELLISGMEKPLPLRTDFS
Method: HFF-1 cells were also assessed for inhibition of STING-agonist-induced IFN-β and CXCL10 release in cells treated with Compounds A9 and A11. […] In contrast, pre-treating cells for 1 to 2 hours prior to diABZI c3, simultaneous treatment with A9 and diABZI c3, or pre-treating cells for 15 minutes with diABZI c3 followed by A9 treatment led to a decrease in the IFN media concentration to ~100 U/mL. […] In contrast, cells pre-treated for 1 to 2 hours prior to diABZI c3, simultaneous treatment with A9 and diABZI c3, or pre-treating cells for 15 minutes with diABZI c3 followed by A9 treatment led to a decrease in the CXCL10 media concentration to […] (Figure 9B, unfiled bars).
In contrast, pre-treating cells for 1 to 2 hours prior to diABZI c3, simultaneous treatment with A11 and diABZI c3, or pre-treating cells for 15 minutes with diABZI c3 followed by A11 treatment led to a decrease in the IFN media concentration to -10 - 20 U/mL. […] In contrast, cells pre-treated for 1 to 2 hours prior to diABZI c3, simultaneous treatment with A11 and diABZI c3, or pre-treating cells for 15 minutes with diABZI c3 followed by A11 treatment led to a decrease in the CXCL10 media concentration to -10 - 20 pg/mL (Figure 9B; filled bars).

STING [4] = target: T2, STING; assay: Western Blot analysis for S1 STING ligand antagonism in primary human skin fibroblasts; type: cell-based; design: host or cells: HFF-1 human foreskin fibroblasts; conditions: 5 µM; 2 h or 1 h before, simultaneously with, or 15 minutes after 0.3 µM diABZI
Method: To assess whether S1 STING ligands inhibit STING activation, primary human skin fibroblasts (Figure 5) or HFF-1 cells (Figure 6) were treated with various compounds which comprise only an S1 ligand domain and a Linker domain before undergoing Western Blot analysis as described below. Compounds A9, A11, A26 and A30 used in the following experiments share a common S1 ligand, which is also shared by Example compounds 1, 3, 5-29, 33-38.
Cells were incubated with A9 or A11 for 1 or 2 hours before addition of diABZI c3, treated with test compound and diABZI c3 simultaneously, or treated with A9 or A11 after 15 minutes incubation with diABZI c3. As a control, cells were also treated with diABZI c3 alone.

T1 sequence (Q86WV6 155-379): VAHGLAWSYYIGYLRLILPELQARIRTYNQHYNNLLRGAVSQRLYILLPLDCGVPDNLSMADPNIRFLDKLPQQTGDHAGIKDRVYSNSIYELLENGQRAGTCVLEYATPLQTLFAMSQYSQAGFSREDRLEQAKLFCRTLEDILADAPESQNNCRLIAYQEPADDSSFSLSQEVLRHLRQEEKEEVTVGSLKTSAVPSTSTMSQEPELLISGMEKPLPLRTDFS

| SMILES | IC50 [1] | IC50 [2] | also measured |
| --- | --- | --- | --- |
| CCn1nc(C)cc1C(=O)N=c1n(C)c2cc(C(N)=O)ccc2n1CCC(CCn1c(=NC(=O)c2cc(C)nn2CC)n(C)c2cc(C(N)=O)ccc21)OCC(=O)NCCOCCOCCOCCNc1cccc2c1C(=O)N(C1CCC(=O)NC1=O)C2=O (centres unmarked) [Example 1, 1-[3-({N-2-[2-(2-{2-[2-(2,6-Dioxo-3-piperidyl)-1,3-dioxo-4-isoindolinylamino]ethoxy}ethoxy)ethoxy]ethylcarbamoyl}methoxy)-5-{5-carbamoyl-2-[(1-ethyl-3-methyl-5-pyrazolyl)carbonylimino]-3-methyl-2,3-dihydro-1H-1,3-benzimidazol-1-yl}pentyl]-2-[(1-ethyl-3-methyl-5-pyrazolyl)carbonylimino]-3-methyl-2,3-dihydro-1H-1 ,3-benzimidazole-5-carboxamide] | < 30 nM | – | – |
| CCn1nc(C)cc1C(=O)N=c1n(C)c2cc(C(N)=O)ccc2n1CCC(CCn1c(=NC(=O)c2cc(C)nn2CC)n(C)c2cc(C(N)=O)ccc21)OCC(=O)NCCOCCOCCOCCOCC(=O)N[C@H](C(=O)N1C[C@H](O)C[C@H]1C(=O)NCc1ccc(-c2scnc2C)cc1)C(C)(C)C (some centres unmarked) [Example 5] | < 30 nM | 2.4 nM | – |
| CCn1nc(C)cc1C(=O)N=c1n(C)c2cc(C(N)=O)ccc2n1CCC(CCn1c(=NC(=O)c2cc(C)nn2CC)n(C)c2cc(C(N)=O)ccc21)OCC(=O)NCCOCCOCCOCC(=O)N[C@H](C(=O)N1C[C@H](O)C[C@H]1C(=O)NCc1ccc(-c2scnc2C)cc1)C(C)(C)C (some centres unmarked) [Example 28] | < 30 nM | – | – |
| CCn1nc(C)cc1C(=O)N=c1n(C)c2cc(C(N)=O)ccc2n1CCC(CCn1c(=NC(=O)c2cc(C)nn2CC)n(C)c2cc(C(N)=O)ccc21)OCC(=O)NCCOCCOCCOCCOCCNc1cccc2c1C(=O)N(C1CCC(=O)NC1=O)C2=O (centres unmarked) [Example 29, 1-{3-[(N-2-{2-[2-(2-{2-[2-(2,6-Dioxo-3-piperidyl)-1,3-dioxo-4-isoindolinylamino]ethoxy}ethoxy)ethoxy]ethoxy}ethylcarbamoyl)methoxy]-5-{5-carbamoyl-2-[(1-ethyl-3-methyl-5-pyrazolyl)carbonylimino]-3-methyl-2,3-dihydro-1H-1 ,3-benzimidazol-1-yl}pentyl}-2-[(1-ethyl-3-methyl-5-pyrazolyl)carbonylimino]-3-methyl-2,3-dihydro-1H-1,3-benzimidazole-5-carboxamide] | < 30 nM | 1.8 nM | – |
| CCn1nc(C)cc1C(=O)N=c1n(C)c2cc(C(N)=O)ccc2n1CCC(CCn1c(=NC(=O)c2cc(C)nn2CC)n(C)c2cc(C(N)=O)ccc21)OCC(=O)N1CCc2cc(OC)ccc2C1 (centres unmarked) [Example A9, 1-(5-{5-Carbamoyl-2-[(1-ethyl-3-methyl-5-pyrazolyl)carbonylimino]-3-methyl-2,3-dihydro-1H-1,3-benzimidazol-1-yl}-3-[2-(6-methoxy-1,2,3,4-tetrahydro-2-isoquinolyl)-2-oxoethoxy]pentyl)-2-[(1-ethyl-3-methyl-5-pyrazolyl)carbonylimino]-3-methyl-2,3-dihydro-1H-1,3-benzimidazole-5-carboxamide] | – | – | IFN media concentration (STING [3]; 5 µM): ~ 100 U/mL; CXCL10 media concentration (STING [3]; A9 5 µM): ~ 30 U/mL; LC3B lipidation (STING [4]): reduced LC3B lipidation; P-STING intensity (activation of STING) (STING [4]): reduced intensity of P-STING; P-TBK1 intensity (STING [4]): reduced P-TBK1 intensity |
